{"source": "patent US11998610B2", "about": "“Conjugates and methods of using the same” (Flagship Pioneering Innovations V, Inc., priority 2018, dated 2024)", "tested_on": "CT26.CL25 cells", "assay": "Cell viability readout (CellTiter-Glo) with bacteria-free media", "format": "cell-based, mouse", "details": "10 nM compound, CT26.CL25 cells, 72 h, CellTiter-Glo", "description": "Example 100: Cell-Based Assay of Bacterial Enzymes with Mammalian CT26.CL25 Mouse Colorectal Carcinoma Viability Readout\nBacteria-free media was incubated with the indicated test compound. ((R)—N1-(2-(methylamino)ethyl)-2-octanamidosuccinamide, a recognition element-linker conjugate lacking a payload, was serially diluted 1:1000 in DMSO and […] in medium+10% FBS to give a final concentration of 10 nM. Compound 35, Compound 76, Compound 77, Compound 78, Compound 79, and SN-38 were serially diluted 1:1000 in DMSO and 1:1000 in medium to give a final concentration of 10 nM, and then the bacteria-free supernatants were tested for their ability to kill mammalian cells. As an additional control, the test compound will also be incubated with bacteria-free media. The above steps can also be performed in the presence of E. coli (CFT073 ATCC 700928, Nissle 1917, or BL21 (DE3)) to effect cleavage of the conjugates of the application.\nOn Day 1, CT26.CL25 cells (15,000 cells/well) were seeded in triplicate into a 24 well plate and incubated overnight in 100 μL of complete medium. The reactions (bacteria or media blank) was pelleted by centrifugation, and then the supernatant was passed through a 0.2 μm sterile filter to remove residual bacteria.\nOn Day 2, 300 μL of a 10 nM solution of each compound in media were applied to separate wells of CT26.CL25 cells as prepared on Day 1. The cells were incubated at 37° C. for 72 h. After this point, viability was assessed using a CellTiter-Glo kit.\nBinning of the compounds was achieved by measuring cell growth or arrest (e.g. remaining cells are >90% viable, >80% viable, >70% viable, >60% viable, >50% viable, >40% viable, >30% viable, >20% viable, or >10% viable).", "data": [{"smiles": "CCCCCCCCCCCCCC(=O)N[C@H](CC(N)=O)C(=O)N[C@@H](C)CCC(=O)O[C@]1(CC)C(=O)OCc2c1cc1n(c2=O)Cc2c-1nc1ccc(O)cc1c2CC", "note": "[Example 35, (S)-4,11-diethyl-9-hydroxy-3,14-dioxo-3,4,12,14-tetrahydro-1H-pyrano[3′,4′:6,7]indolizino[1,2-b]quinolin-4-yl (S)-4-((R)-4-amino-4-oxo-2-tetradecanamidobutanamido)pentanoate]", "values": [{"measurement": "Bacteria-free media (Luminescence, average of three runs)", "result": 380490}]}]}
